Test results: patent publication US20060263453A1, “Methods and compositions for modulating glutamate dehydrogenase” (priority 2004, published 2006)
Where two headings read alike, the source gives them in different places.

Experiments:
[1] = system: rat islets; assay: BCH-stimulated insulin secretion and oxygen consumption in perifused islets; type: cell-based, Wistar rat
Experimental: In this Example, the effects of EGCG and EGC on LSIS were measured, while simultaneously monitoring respiration rates. More particularly, the effects of EGCG (20 μM) and EGC (20 μM) on BCH-stimulated insulin secretion were measured. First, 1000 adult male Wistar rat islets were isolated as described above and were cultured on a glass perfusion chamber in 10 mM glucose for 3 days. Next, the islets were perifused in an oxygen consumption measurement apparatus containing BCH, along with 0 μM EGCG and 0 μM EGC, 20 μM EGCG, or 20 μM EGC. The perifusion apparatus used in these Examples consisted of a peristaltic pump, a water bath (37° C.), a gas exchanger (artificial lung: media flowed through the thin-walled silastic tubing loosely coiled in a glass jar that contained 20% O2 and 5% CO2 balanced with N2), and fraction collector. All transfer lines were insulated. After the system was provided with 20 μM EGCG or 20 μM EGC, oxygen partial pressure was recorded every 10 seconds by phosphorescence lifetimes of an oxygen-sensitive porphyrin (palladium-mesotetra; 4-carboxyphenyl porphyrin dendrimer). The dye molecules were excited with pulses at 524 nm from a UV lead and emission was measured at 690 nm. The inflow oxygen tension was measured in the absence of islets in the chamber before and after each experiment. The perifusate was a Krebs buffer (pH 7.4) containing 2.2 mM Ca^2+, 1% bovine serum albumin equilibrated with 20% O2 and 5% CO2 balanced with N2. The flow rate was […] and samples were collected every 2 minutes for insulin measurements by radioimmunoassay. The results are summarized in FIG. 6, and are presented as means±S.E. for 1000 islets from 3 separate experiments for EGCG (and from 1 experiment for EGC). Due to the high density of data, S.E. is only shown in every 20 samples.

[2] = ethanol, DMSO, dimethyl formamide; stored at −20° C.; cited from earlier work
[3] = system: rat islets; assay: insulin secretion and oxygen consumption during glucose stimulation; type: cell-based
Experimental: Next, insulin secretion and oxygen consumption were measured, as described herein, during glucose stimulation to confirm the above results. Isolated rat islets were isolated and cultured, as described above, with 10 mM glucose for 3 days and subsequently perifused in the oxygen consumption measurement apparatus described above. […] In general, FCCP is known to stimulate Mg^2+-ATPase activity, inhibit β-amyloid production, and mimic the effect of selective glutamate agonist N-methyl-D-aspartate (NMDA) on mitochondrial superoxide production. The results shown in FIG. 9 are presented as means±S.E. for 1000 islets from 3 separate experiments. Due to the high density of data, S.E. is only shown in every 20 samples.

[4] = biological target: T1, Bovine GDH (bGDH) (Bos taurus, UniProt P00366); assay: reductive amination reaction catalyzed by bovine GDH (NADH absorbance at 340 nm); type: biochemical
T1 construct: purchased Sigma Aldrich Chemical Company (St. Louis, Mo.)
T1 sequence (P00366 58-558): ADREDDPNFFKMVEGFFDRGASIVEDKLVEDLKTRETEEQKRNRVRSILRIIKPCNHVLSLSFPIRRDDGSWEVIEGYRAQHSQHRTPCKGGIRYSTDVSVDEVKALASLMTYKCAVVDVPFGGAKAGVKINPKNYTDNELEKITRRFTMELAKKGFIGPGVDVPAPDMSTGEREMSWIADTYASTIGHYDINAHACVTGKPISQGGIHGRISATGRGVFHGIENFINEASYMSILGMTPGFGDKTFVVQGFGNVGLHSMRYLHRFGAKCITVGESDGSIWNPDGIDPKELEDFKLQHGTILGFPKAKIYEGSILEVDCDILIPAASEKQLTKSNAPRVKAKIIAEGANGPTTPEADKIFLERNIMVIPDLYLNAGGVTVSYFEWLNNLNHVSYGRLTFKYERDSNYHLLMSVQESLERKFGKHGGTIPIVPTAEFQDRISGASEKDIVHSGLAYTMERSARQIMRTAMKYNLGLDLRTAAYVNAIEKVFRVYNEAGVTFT
Experimental: In this Example, the effects of epigallocatechin gallate (EGCG), epigallocatechin (EGC), epicatechin gallate (ECG), and epicatechin (EC) from Camellia sinensis on GDH activity were tested. Bovine GDH (bGDH) was used in this Example, which was obtained as an aqueous (NH4)2SO4 suspension from Sigma Aldrich Chemical Company (St. Louis, Mo.).
(§1) First, aliquots of GDH were extensively dialyzed against 0.1M sodium phosphate buffer, pH 7.0, which contained 1 mM ethylenediaminetetraacetic acid (EDTA). The enzyme concentrations were adjusted to 1 mg/ml and the amount of enzyme added to the reaction mixture, for kinetic analysis, was adjusted to yield optimal steady state velocity measurements. All solutions were made immediately prior to use. Enzyme assays were performed by monitoring reduced coenzyme absorbance at 340 nm using a Shimadzu UV-1601 spectrophotometer. The reductive amination reactions were performed in 3 mL volumes at pH 7.0 in the presence of 0.1 mM nicotinamide adenine dinucleotide (NADH), 50 mM NH4Cl, and 5 mM 2-oxoglutarate. The rate of NADH oxidation was calculated using an extinction coefficient of 6.22 mM^−1 cm^−1.

[5] = system: GDH from Tetrahymena thermophilia (tGDH); assay: kinetic analysis of Tetrahymena GDH; type: biochemical; settings: FIG. 4
Experimental: as §1
(§2) To this end, EGCG was tested against five different HI/HA mutant forms of GDH, namely, R265K, R269C, E296A, S448P, and H454Y. In addition, EGCG was tested against human wild type GDH (“WT”), GDH from Tetrahymena thermophilia (“tGDH”) that, like the HI/HA mutant GDH enzymes, is not regulated by GTP, and a human GDH that was missing a certain 48 residue ‘antenna-like’ feature protruding from the top of each of its six subunits that is necessary for ADP, GTP, and Palmitoyl CoA regulation. […]

[6] = biological target: T2, GDH (Bos taurus, UniProt P00366); assay: abrogation of EGCG inhibition of GDH by leucine, BCH and ADP; type: biochemical, bovine
T2 construct: purchased Sigma Aldrich Chemical Company (St. Louis, Mo.)
T2 sequence (P00366 58-558): as above
Experimental: as §1
The ability of the activators BCH, leucine, and ADP to reverse EGCG regulation on GDH was next examined. More particularly, kinetic analysis of GDH activity was carried out as described in Example 1, wherein each reaction contained either (a) 0 μM EGCG plus leucine; (b) 1 μM EGCG plus leucine; (c) 0 μM EGCG plus BCH; (d) 1 μM EGCG plus BCH; (e) 0 μM EGCG plus ADP; or (f) 1 μM EGCG plus ADP.

[7] = system: islets; assay: [U-14C]-glucose oxidation in islets; type: cell-based, rat; settings: wide range of EGCG concentrations; 3 mM or 12 mM glucose; FIG. 10
Experimental: In addition, the effect of EGCG on glucose oxidation was measured. More particularly, batches of 100 islets were prepared as described herein and preincubated with glucose-free Krebs-Ringer bicarbonate buffer containing varying concentrations of EGCG (shown in FIG. 10) for 60 minutes. Islets were then incubated with 3 mM or 12 mM glucose, in the presence of the varying concentrations of EGCG, for another 60 minutes, along with 2 mCi [U-^14C]-glucose (NEN-Life Science Products, UK). Production of ^14CO2 was monitored as described above.

[8] = system: 'antenna-less' form of human GDH; assay: kinetic analysis of 'antenna-less' human GDH; type: biochemical; settings: FIG. 4
Experimental: as §1, §2

O=C(O[C@@H]1Cc2c(O)cc(O)cc2O[C@@H]1c1cc(O)c(O)c(O)c1)c1cc(O)c(O)c(O)c1 [EGCG, (2R,3R)-2-(3,4,5-Trihydroxyphenyl)-3,4-dihydro-1 (2H)-benzopyran-3,5,7-triol 3-(3,4,5-trihydroxybenzoate)]
effect on LSIS (BCH-induced insulin secretion) ([1]; 20 μM, FIG. 6A): strongly inhibited | effect on BCH-induced increase in respiration rates ([1]; 20 μM, FIG. 6B): inhibited | effect on oxygen consumption in the absence of BCH ([1]; data not shown): did not have any significant effect | stability in organic solvents [2]: at least six months | effect on GSIS ([3]; FIG. 9A): does not affect | effect on respiration during glucose stimulation ([3]; FIG. 9B): does not affect | potent inhibitor of GDH activity ([4]; FIG. 1A): potent inhibitors | reversibility of inhibition ([4]; dialysis of an EGCG/GDH mixture, data not shown): reversible | inhibition of tGDH [5]: inhibited | inhibition at 1 µM ([6]; 1 μM EGCG plus leucine, BCH or ADP, read-out: EGCG inhibition at the highest concentration of activators): ~30% | inhibition at 1 µM ([6]; 1 μM EGCG, without activator, read-out: inhibition of the reaction): > 80% | effect on glucose oxidation [7]: did not affect | inhibition of 'antenna-less' human GDH [8]: did not inhibit
